Laboratory results from article PMC9031226, “Preclinical Therapeutic Assessment of a New Chemotherapeutics [Dichloro(4,4’-Bis(2,2,3,3-Tetrafluoropropoxy) Methyl)-2,2’-Bipryridine) Platinum] in an Orthotopic Patient-Derived Xenograft Model of Triple-Negative Breast Cancers” (Pharmaceutics, 2022).
pIC50: −log10 of the molar value.

Key:
[1] = test system: MCF-7; test: MTT cell viability assay on MCF-7; type: cell-based, human; conditions: for reduction in cell viability (antiproliferative effect): MCF-7, 80 μM
Experimental: (§1) Human cancer cell lines, including MDA-MB-231, MCF-7, COLO205 and SK-OV-3, used in this study were purchased from American Type Culture Collection (ATCC, Manassas, VA, USA). All cell cultures were maintained in a 5% CO2-containing incubator at 37 °C. Triple-negative breast cancer cell line MDA-MB-231 and estrogen receptor-positive breast cancer cells MCF-7 were cultured in Dulbecco’s Modified Eagle Medium/Nutrient Mixture F-12 medium (DMEM/F12, Thermo Fisher Scientific Inc., Waltham, MA, USA) supplemented with 1% HyClone Penicillin-Streptomycin 100X solution (Cytiva, Marlborough, MA, USA) and 10% (v/v) fetal bovine serum (Thermo Fisher Scientific Inc., Waltham, MA, USA). COLO205 colon cancer cells and SK-OV-3 ovarian cancer cells were cultured in Roswell Park Memorial Institute (RPMI) 1640 medium (Thermo Fisher Scientific Inc., Waltham, MA, USA) containing the same supplements as described above.
(§2) Cell viability was evaluated using MTT assay. […] A viable cell count was determined by adding MTT reagent (3-(4,5-Dimethyl-2-thiazolyl)-2,5-diphenyl-2H-tetrazolium bromide (MTT; SERVA, Heidelberg, Germany) at a concentration of 5 mg/mL in PBS followed by measurement of the absorbance at 570 nm for each well detected by μQuant™ universal microplate spectrophotometer (BioTek, Winowski, VT, USA). The assessment procedures were followed under the manufacturer’s instructions. The final results were represented as mean values in the same experimental group detected by a microplate reader.

[2] = test system: COLO205; test: MTT cell viability assay on COLO205; type: cell-based, human; conditions: for reduction (proliferative inhibition): COLO205, 20 μM; for pIC50: COLO205, MTT assay, 48 h
Experimental: as §1, §2

[3] = test system: MDA-MB-231; test: Western blotting of apoptosis and autophagy markers; type: cell-based, human; conditions: MDA-MB-231, Western blotting
Experimental: Each sample containing 30 μg protein mixture was loaded into a well on SDS-PAGE gel and separated through electrophoresis, followed by protein determination using specific antibodies against PARP (1:1000, Cat. #9542; Cell Signaling Technology, Danvers, MA, USA), GAPDH (1:5000, Cat. GTX100118; GeneTex, Irvine, CA, USA), Bax (1:1000, Cat. ARG65612; Arigo, Glasgow, UK), Bcl-2 (1:1000, Cat. ARG55188; Arigo, Glasgow, UK) and LC3-I/II (1:1000, Cat. #12741; Cell Signaling Technology, Danvers, MA, USA). Primary antibodies were targeted by horseradish peroxidase (HRP) conjugated anti-mouse (1:5000, Cat. A9044, Sigma-Aldrich, Burlington, VT, USA) or anti-rabbit (1:5000, Cat. SI-A0545; Sigma-Aldrich, Burlington, VT, USA) secondary antibodies for visualizing immunoblots. Results were imaged by ChemiDoc system (Bio-Rad Laboratories, Hercules, CA, USA) and semi-quantification was conducted using Image Lab system (Bio-Rad Laboratories, Hercules, CA, USA).

[4] = test system: P53, Ki-67, cleaved caspase 3, PD-L1; test: Immunohistochemistry of CDX tumors; type: in vivo, mice; conditions: 5 mg/kg
Excerpt: (§3) Formalin-fixed and paraffin-embedded 4 μm sections of tumor and organs from cell-bearing xenograft models were stained in hematoxylin and eosin to provide an overall morphology of tissues. Tumor sections were dewaxed with UltraClear™ (J.T.Baker, Phillipsburg, NJ, USA), rehydrated in a descending series of alcohol and water and had antigens unmasked in pH 6 or pH 9 Epitope Retrieval Solution (Leica Biosystems Inc., Wetzlar, Germany) in a microwave pressure cooker. […] VisUCyte HRP Polymer Antibody against rabbit IgG (VC003-025; R&D Systems, Minneapolis, MN, USA) and mouse IgG (VC001-025; R&D Systems, Minneapolis, MN, USA) were targeted to primary antibodies. Liquid DAB+ system from Agilent Technologies (Santa Clara, CA, USA) was applied as a chromogen for visualizing. Slides were mounted after hematoxylin counterstaining. All images were scanned using Motic EasyScan Pro 6 pathology slide scanner (Motic China Group Co., Ltd., Hong Kong, China).

[5] = test system: HCT-15; test: MTT cell viability assay on HCT-15 (supplement); type: cell-based; conditions: 20 to 80 μM, 24 or 48 h, supplementary figure
Experimental: Figure S11. TFBPC and glycyrrhizic acid micelles (GAM)-encapsulated TFBPC […]
NSG mice (N = 16) with implantation of MDA-MB-231 cells on the left flank were intraperitoneally administrated with PBS (5 mL/kg), TFBPC (5 mg/kg) or glycyrrhizic acid micelles (GAM)-encapsulated TFBPC (5 mg/kg) once per week and four times total in the whole course of treatment. Tumor volume of each animal was measured by caliper for monitoring its tumor growth and then sacrificed 49 days after the first dose of treatment. Mean ± SD. **** p < 0.0001. […]
colorectal cancers. Cisplatin and three platinum-based analogues, including (4, 4-3F) PtCl2 (A), TFBPC (B) and (4, 4-5F) PtCl2 (C), were assessed for cell viability using MTT assay. MDA-MB-231 breast cancers cells (D), COLO205 (E) and HCT-15 (F) colorectal cancer cells were given various concentrations of cisplatin or analogues ranging from 20 to 80 μM for 24 or 48 h. Results were shown in mean ± SD and statistically analyzed by one-way ANOVA and Tukey’s post hoc test. * p < 0.05, ** p < 0.01, *** p < 0.001, **** p < 0.0001. […]

[6] = test system: MDA-MB-231 cells; test: Reactive oxygen species detection (DCF-DA, flow cytometry); type: cell-based, human; conditions: MDA-MB-231, 8 h
Experimental: DCF-DA is highly fluorescent and can label ROS for quantitative assessment using flow cytometer with excitation/emission at 485 nm/535 nm. To harvest and collect adherent and suspended cells, we first collected suspended cells from supernatant by centrifuging at 3000 rpm for 5 min at 4 °C and then adding trypsin to detach these adherent cells in the 6-well plate, followed by removing suspended cells via centrifugation. Both cell pellets after centrifugation were collected and re-suspended in PBS for subsequent quantitative analysis of ROS productions from cells treated either with CDDP or TFBPC using flow cytometer by gating the positive area in the histogram.

[7] = HE staining of major organs (CDX model); type: in vivo, mice; conditions: xenograft model
Excerpt: as §3

[8] = target: bovine serum albumin (BSA) (Bos taurus, UniProt P02769); test: UV-Vis spectrum of BSA-drug complex; type: binding; conditions: 250 μM BSA in PBS pH 7.4, 20-640 μM
Excerpt: Absorption between the wavelengths of 220 nm and 500 nm was detected by measuring absorbance every 2 nm via Thermo Varioskan Flash microplate reader (Thermo Fisher Scientific Inc., Waltham, MA, USA). The maximal absorbance of BSA at 278 nm was marked to highlight the spectrum in pure BSA without chemical intercalation.

bovine serum albumin (BSA), sequence (P02769 25-607): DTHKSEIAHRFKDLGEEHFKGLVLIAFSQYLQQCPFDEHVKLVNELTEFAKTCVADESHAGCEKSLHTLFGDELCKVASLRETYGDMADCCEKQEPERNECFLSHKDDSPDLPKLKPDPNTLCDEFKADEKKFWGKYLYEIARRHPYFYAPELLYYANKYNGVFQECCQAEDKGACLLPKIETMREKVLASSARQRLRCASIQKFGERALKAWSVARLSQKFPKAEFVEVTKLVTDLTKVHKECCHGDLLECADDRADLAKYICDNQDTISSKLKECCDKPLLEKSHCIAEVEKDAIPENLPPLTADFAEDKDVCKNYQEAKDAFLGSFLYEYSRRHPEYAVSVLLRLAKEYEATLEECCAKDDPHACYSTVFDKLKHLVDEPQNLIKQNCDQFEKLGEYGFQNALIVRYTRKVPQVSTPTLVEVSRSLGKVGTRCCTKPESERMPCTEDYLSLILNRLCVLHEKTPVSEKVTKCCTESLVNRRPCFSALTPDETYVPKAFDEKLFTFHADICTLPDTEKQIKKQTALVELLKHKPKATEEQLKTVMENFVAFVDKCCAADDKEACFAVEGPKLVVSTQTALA

Row | SMILES | reduction in cell viability (antiproliferative effect) [1] [%] | pIC50 ([1]; MCF-7, MTT assay, 48 h) | reduction (proliferative inhibition) [2] [%] | pIC50 [2] | LC3 I conversion to LC3 II (autophagy marker) [3] | cleaved form of PARP [3] | expression of P53, Ki-67 and PD-L1 in tumors (IHC) [4] | expression of cleaved caspase 3 in tumors (IHC) [4] | IC50 Values ([1]; MCF-7, MTT assay, 48 h) | cell viability of COLO205 cells ([2]; MTT, 20 to 80 μM, 24 or 48 h, supplementary figure) | cell viability of HCT-15 cells [5] | ROS production [6] | Bax/Bcl-2 ratio [3] | pathophysiological changes in heart, kidneys, liver, lungs and spleen (HE staining) [7] | UV absorbance of BSA at 278 nm vs. concentration [8]
1 | N.N.[Cl][Pt][Cl] [CDDP, Cis-diamineplatinum(II) dichloride] | 19 | < 4.10 | 23 | 4.15 | could not induce apoptotic and autophagy signaling | failed to induce the formation of the cleaved form of PARP | lower intensity in P53, Ki-67 and PD-L1 | higher intensity of cleaved caspase 3 |  |  |  |  |  |  | 
2 | FC(F)C(F)(F)COCc1ccnc(-c2cc(COCC(F)(F)C(F)F)ccn2)c1.[Cl][Pt][Cl] [TFBPC] | 28 | < 4.10 | 72 | 4.94 | LC3 I conversion to LC3 II | formation of the cleaved form of PARP | lowest level in expressions of P53, Ki-67 and PD-L1 | highest expression of cleaved caspase 3 | resistant | effective in inhibiting the cell viability | statistically reduced cell viability | apparent increase in ROS production | increase in Bax/Bcl-2 ratio | No obvious pathophysiological changes | positively correlated
